From US9102637B2, “Bicyclic thiazole compounds” (CARNA BIOSCIENCES INC., priority 2013, dated 2015)

Each molecule was assayed against human TNIK (N-terminal segment, TNIK_N, residues 1-314) (Homo sapiens (Human), UniProt Q9UKE5) (assay: TNIK kinase assay (mobility shift)). Conditions: TNIK_N kinase activity, 25 μM ATP, 1 h at room temperature.
Format: biochemical
Text: Preparation of Recombinant Human TNIK (N-Terminal Segment):
A cDNA encoding the N-terminal segment (TNIK_N, residues 1-314) containing the kinase domain of human TNIK (NM_015028.1) was amplified from cDNA mixture synthesized from human tissue (Biochain) by PCR using the following primers.
The cDNA was subcloned into baculovirus transfer vector pFastBac_GSTb that includes protease cleavage site and glutathione S-transferase purification tag (GST-tag). The plasmid was purified and the insertion of the pFastBac_GSTb-TNIK_N was confirmed by DNA sequencing. Then E. coli DH10Bac competent cells were transformed with the plasmid to prepare the recombinant bacmid according to the instructions for the Bac-to-Bac™ baculovirus expression systems (Invitrogen). The Sf9 cells were transfected with the recombinant bacmid containing pFastBac_GSTb-TNIK_N using Cellfectin Reagent (Invitrogen) in SF-9001I serum free media (Invitrogen). The viral supernatant was collected from the medium 72 h after transfection. The virus was amplified three times by infecting actively growing Sf9 or Sf21 cells in Grace's insect media (Invitrogen) supplemented with 10% FCS and an antibiotic-antimycotic reagent (Invitrogen) for 72 h at 27° C. in T-flask or roller bottles. The titer of amplified TNIK_N virus was estimated at 2.36×10^8 pfu/ml by using BacPAK™ Baculovirus Rapid Titer kit (Clontech).
Log-phase Sf21 cells (2×10^6 cells/ml) in the Grace's insect media were infected with the recombinant baculovirus at MOI of 3.0 and incubated in roller bottles (250 ml media per bottle) for 72 h at 27° C., after which, the cells were collected by centrifugation, and the cell pellet washed with cold PBS and kept at −80° C. until purification. The following purification procedures were carried out at 4° C. The frozen cells were thawed on ice and lysed in lysis buffer (50 mM Tris-HCl, pH 7.5, 150 mM NaCl, 1% Nonidet P-40, 5 mM DTT, 0.5 mM EDTA, 0.5 mM EGTA) supplemented with 1 mM phenylmethansulfonylfluoride, 2 μg/ml leupeptin, 2 μg/ml aprotinin, 1 mM NaF, 100 μM sodium orthovanadate, and 1 μM cantharidin by sonication. The suspended lysate was cleared by centrifugation at 9000g for 20 min and the supernatant was incubated for 1 h with glutathione Sepharose beads (GE Healthcare). The beads were suspended in buffer-H (50 mM Tris-HCl, pH 7.5, 1 M NaCl, 1 mM DTT, 0.5 mM EDTA, 0.5 mM EGTA and 0.05% Brij35) and washed with buffer-H followed by buffer-L (50 mM Tris-HCl, pH 7.5, 150 mM NaCl, 1 mM DTT, 0.5 mM EDTA, 0.5 mM EGTA, 0.05% Brij35) in an Econo-pack column (BIO-RAD). The bound TNIK_N was eluted with elution buffer (50 mM Tris-HCl, pH 8.0, 150 mM NaCl, 1 mM DTT, 10% glycerol, 0.5 mM EDTA, 0.5 mM EGTA and 5 mM reduced glutathione). The eluted fractions were collected and determined the protein concentration by Bradford reagent (BIO-RAD). The TNIKN fractions were pooled and desalted using 10DG column (BIORAD) equilibrated with the storage buffer (50 mM Tris-HCl, pH 7.5, 150 mM NaCl, 1 mM DTT, 10% glycerol, 0.05% Brij35). The purified TNIKN was characterized by electrophoresis using 4-20% polyacrylamide gels and matrix-assisted laser desorption/ionization reflection time-of-flight (MALDI-TOF) mass spectrometry on a Voyager-DE RP MALDI/TOF (Applied Biosystems). TNIK_N was confirmed by the molecular weight and. MASCOT Peptide Mass Fingerprint.
The kinase assays were conducted in a 20 μl volume using 384-well plates (Greiner). The reaction mixture consists of compound or vehicle (1% DMSO), 0.08 ng/μl TNIK_N, 1 μM FITC-labeled substrate peptides, including E-aminocaproic acid and 7 amino acids (described as SEQ ID NO.3 in “Kinase assay of TEST EXAMPLE 1” of WO 2010/064111(P.31)), 20 mM Hepes, pH 7.5, 0.01% Triton X-100, 5 mM MgCl2, 25 μM ATP and 2 mM DTT. As blank, TNIK N was excluded from the reaction mixture of vehicle (1% DMSO). […]

Chain of human TNIK (N-terminal segment, TNIK_N, residues 1-314) (Q9UKE5 1-314): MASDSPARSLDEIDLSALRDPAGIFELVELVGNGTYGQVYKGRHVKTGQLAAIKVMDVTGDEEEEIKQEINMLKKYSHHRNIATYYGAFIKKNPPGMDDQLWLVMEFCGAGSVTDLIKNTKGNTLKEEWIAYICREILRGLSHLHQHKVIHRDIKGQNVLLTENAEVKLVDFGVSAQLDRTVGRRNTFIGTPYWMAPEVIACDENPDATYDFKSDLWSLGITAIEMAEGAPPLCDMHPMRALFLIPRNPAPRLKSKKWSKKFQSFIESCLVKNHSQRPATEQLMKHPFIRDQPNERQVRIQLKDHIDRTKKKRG

Structure (SMILES)	IC50 [nM]
NC(=O)c1nc(Nc2cccc3ncccc23)sc1NC(=O)c1ccsc1 [Example 40, 2-(quinolin-5-ylamino)-5-(thiophene-3-carbox-amido)thiazole-4-carboxamide]	9.4
CN(c1ccc2ncccc2c1)c1nc(C(N)=O)c(NC(=O)c2csc(CN3CCOCC3)c2)s1 [Example 51]	5.7
CN1CCN(Cc2cc(C(=O)Nc3sc(Nc4cccc5ncccc45)nc3C(N)=O)cs2)CC1 [Example 56, 5-{5-[(4-methylpiperazin-1-yl)methyl]thiophene-3-carboxamido}-2-(quinolin-5-ylamino)thiazole-4-carboxamide]	8.2
NC(=O)c1nc(Nc2ccc3ccccc3c2)sc1NC(=O)CCCCCN1CCOCC1 [Example 92, 5-(6-morpholinohexanamido)-2-(naphthalen-2-ylamino)thiazole-4-carboxamide]	20.2
NC(=O)c1nc(Nc2ccc3ccccc3c2)sc1NC(=O)C1CC1 [Example 93, 5-(cyclopropanecarboxamido)-2-(naphthalen-2-yl-amino)thiazole-4-carboxamide]	15
NC(=O)c1nc(Nc2ccc3ccc(F)cc3c2)sc1NC(=O)C1CC1 [Example 122, 5-(cyclopropanecarboxamido)-2-[(7-fluoro-naphthalen-2-yl)amino]thiazole-4-carboxamide]	12.8
CC(C)=CC(=O)Nc1sc(Nc2ccc3ccc(F)cc3c2)nc1C(N)=O [Example 128, 2-[(7-fluoronaphthalen-2-yl)amino]-5-(3-methyl-but-2-enamido)thiazole-4-carboxamide]	7.2
NC(=O)c1nc(Nc2ccc3ccc(F)cc3c2)sc1NC(=O)CCCCCN1CCOCC1 [Example 130, 2-[(7-fluoronaphthalen-2-yl)amino]-5-(6-morpho-linohexanamido)thiazole-4-carboxamide]	19.5
COc1ccc2cc(Nc3nc(C(N)=O)c(NC(=O)C=C(C)C)s3)ccc2c1 [Example 137, 2-[(6-methoxynaphthalen-2-yl)amino]-5-(3-meth-ylbut-2-enamido)thiazole-4-carboxamide]	15.2
NC(=O)c1nc(Nc2ccc3cc(CO)ccc3c2)sc1NC(=O)C1CC1 [Example 138, 5-(cyclopropanecarboxamido)-2-{[6-(hydroxy-methyl)naphthalen-2-yl]amino}thiazole-4-carbox-amide]	5.8
CC(C)=CC(=O)Nc1sc(Nc2ccc3cc(CO)ccc3c2)nc1C(N)=O [Example 139, 2-{[6-(hydroxymethyl)naphthalen-2-yl]amino}-5-(3-methylbut-2-enamido)thiazole-4-carboxamide]	1.6
Cc1ccc(C(=O)Nc2sc(Nc3ccc4cc(CO)ccc4c3)nc2C(N)=O)s1 [Example 151, 2-{[6-(hydroxymethyl)naphthalen-2-yl]amino}-5-(5-methylthiophene-2-carboxamido)thiazole-4-carboxamide]	11.1

Now from value to molecule:

IC50 [nM]	Structure (SMILES)
24.7	CC(=O)Nc1ccc(C(=O)Nc2sc(Nc3cccc4ccccc34)nc2C(N)=O)cc1 [Example 1, 5-(4-acetamidobenzamido)-2-(naphthalen-1-ylamino)thiazole-4-carboxamide]
21.5	COc1ccc(C(=O)Nc2sc(Nc3ccc4ncccc4c3)nc2C(N)=O)cc1 [Example 4, 5-(4-methoxybenzamido)-2-(quinolin-6-ylamino) thiazole-4-carboxamide]
27.2	Cc1ccc(C(=O)Nc2sc(Nc3ccc4ccccc4c3)nc2C(N)=O)cc1N [Example 9, 5-(3-amino-4-methylbenzamido)-2-(naphthalen-2-ylamino)thiazole-4-carboxamide]
27.4	CN(CCO)c1ccc(C(=O)Nc2sc(Nc3ccc4ccccc4c3)nc2C(N)=O)cc1 [Example 29, 5-{4-[(2-hydroxyethyl)methylamino]benzamido}-2-(naphthalen-2-ylamino)thiazole-4-carboxamide]
10.7	CC(O)CNc1ccc(C(=O)Nc2sc(Nc3ccc4ccccc4c3)nc2C(N)=O)cc1 (centres unmarked) [Example 30, 5-{4-[(2-hydroxypropyl)amino]benzamido}-2-(naphthalen-2-ylamino)thiazole-4-carboxamide]
7.5	NC(=O)c1nc(Nc2ccc3ccccc3c2)sc1NC(=O)c1ccc[nH]1 [Example 33, 2-(naphthalen-2-ylamino)-5-(1H-pyrrole-2-carbox-amido)thiazole-4-carboxamide]
5.5	NC(=O)c1nc(Nc2ccc3cc(CO)ccc3c2)sc1NC(=O)c1ccsc1 [Example 70, 2-{[6-(hydroxymethyl)naphthalen-2-yl]amino}-5-(thiophene-3-carboxamido)thiazole-4-carbox-amide]
51.3	COc1cc(Nc2nc(C(N)=O)c(NC(=O)c3ccsc3)s2)cc2ccccc12 [Example 74, 2-[(4-methoxynaphthalen-2-yl)amino]-5-(thio-phene-3-carboxamido)thiazole-4-carboxamide]
16.9	NC(=O)c1nc(Nc2ccc3ccc(F)cc3c2)sc1NC(=O)c1ccsc1 [Example 80, 2-[(7-fluoronaphthalen-2-yl)amino]-5-(thiophene-3-carboxamido)thiazole-4-carboxamide]
14.8	COc1ccc2cc(Nc3nc(C(N)=O)c(NC(=O)c4ccc(NCCO)cc4)s3)ccc2c1 [Example 113, 5-{4-[(2-hydroxyethyl)amino]benzamido}-2-[(6-methoxynaphthalen-2-yl)amino]thiazole-4-carbox-amide]
5.8	NC(=O)c1nc(Nc2ccc3ccccc3c2)sc1NC(=O)c1ccc(CCO)cc1 [Example 116, 5-[4-(2-hydroxyethyl)benzamido]-2-(naphthalen-2-ylamino)thiazole-4-carboxamide]
24.4	NC(=O)c1nc(Nc2ccc3ccccc3c2)sc1NC(=O)c1ccc(NCCO)c(N)c1 [Example 121, 5-{3-amino-4-[(2-hydroxyethyl)amino]benzamido}-2-(naphthalen-2-ylamino)thiazole-4-carbox-amide]
12.9	NC(=O)c1nc(Nc2ccc3ccc(F)cc3c2)sc1NC(=O)c1ccc(NCCO)cc1 [Example 124, 2-[(7-fluoronaphthalen-2-yl)amino]-5-{4-[(2-hydroxyethyl)amino]benzamido}thiazole-4-carbox-amide]
9.7	COc1ccc2cc(Nc3nc(C(N)=O)c(NC(=O)c4ccc(N)cc4)s3)ccc2c1 [Example 136, 5-(4-aminobenzamido)-2-[(6-methoxynaphthalen-2-yl)amino]thiazole-4-carboxamide]
15.1	C[C@H](O)CNc1ccc(C(=O)Nc2sc(Nc3ccc4ccccc4c3)nc2C(N)=O)cc1 [Example 146, (S)-5-{4-[(2-hydroxypropyl)amino]benzamido}-2-(naphthalen-2-ylamino)thiazole-4-carboxamide]
16.8	C[C@@H](O)CNc1ccc(C(=O)Nc2sc(Nc3ccc4ccccc4c3)nc2C(N)=O)cc1 [Example 147, (R)-5-{4-[(2-hydroxypropyl)amino]benzamido}-2-(naphthalen-2-ylamino)thiazole-4-carboxamide]
3.7	NC(=O)c1nc(Nc2ccc3ccccc3c2)sc1NC(=O)c1ccc(CNCCO)cc1 [Example 163, 5-(4-{[(2-hydroxyethyl)amino]methyl}benzamido)-2-(naphthalen-2-ylamino)thiazole-4-carboxamide]
